For orientation: pIC50 means −log10 of the IC50, conventionally taken in molar units.

The source of these data is US8871753B2, “Macrocyclic compounds and their use as kinase inhibitors” (Incyte Corporation, priority 2008, dated 2014).

Each structure is given as a SMILES string. pIC50: −log10 of the molar value. Structures can show the parent of a compound that is named as a salt. Where two headings read alike, the source gives them in different places.

Holding throughout (type): biochemical
One experiment addresses TYK2 (Homo sapiens, UniProt P29597). The experiment in a line: TYK2 kinase inhibition (Table A1).
Experiment [1] has as its target T1, human JAK1 (a.a. 837-1142) (Homo sapiens, UniProt P23458).
T1 construct: human JAK1 (a.a. 837-1142); His tag (N); made in house; host or cells: insect cells (baculovirus)
The experiment is described as follows: In vitro JAK kinase assay (HTRF, phosphorylation of a biotinylated peptide), JAK1. The conditions noted are these: read-out: JAK1 IC50. Summed up:
(§1)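 Phosphorylation of a biotinylated peptide by the JAK kinase domain, detected by HTRF with Eu-Py20 and SA-APC. ATP was 90 μM for JAK1, 30 μM for JAK2 and 3 μM for JAK3. Reactions ran 1 h at room temperature and were stopped with EDTA, followed by 40 min antibody binding.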
(TR-FRET usually uses a lanthanide donor and a delayed reading to cut background.)

For experiment [2], the target named is T2, human JAK2 (a.a. 828-1132) (Homo sapiens, UniProt O60674).
T2 construct: JAK2 (a.a. 828-1132); His tag (N); made in house; host or cells: insect cells (baculovirus)
T2 sequence (O60674 828-1132): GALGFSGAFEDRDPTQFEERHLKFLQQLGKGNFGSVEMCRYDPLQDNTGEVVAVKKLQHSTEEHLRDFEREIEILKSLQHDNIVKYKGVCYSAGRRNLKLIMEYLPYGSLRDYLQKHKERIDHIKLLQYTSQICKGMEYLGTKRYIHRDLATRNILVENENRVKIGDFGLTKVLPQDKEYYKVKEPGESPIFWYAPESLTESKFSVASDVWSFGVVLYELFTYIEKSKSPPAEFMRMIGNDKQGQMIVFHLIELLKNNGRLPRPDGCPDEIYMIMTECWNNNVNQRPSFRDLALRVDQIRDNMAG
The experiment in a line: In vitro JAK kinase assay (HTRF, phosphorylation of a biotinylated peptide), JAK2. In a few lines: as §1

The target in experiment [3] is T3, human JAK3 (a.a. 781-1124) (Homo sapiens, UniProt P52333).
T3 construct: JAK3 (a.a. 781-1124); His tag (N); made in house; host or cells: insect cells (baculovirus)
T3 sequence (P52333 781-1124): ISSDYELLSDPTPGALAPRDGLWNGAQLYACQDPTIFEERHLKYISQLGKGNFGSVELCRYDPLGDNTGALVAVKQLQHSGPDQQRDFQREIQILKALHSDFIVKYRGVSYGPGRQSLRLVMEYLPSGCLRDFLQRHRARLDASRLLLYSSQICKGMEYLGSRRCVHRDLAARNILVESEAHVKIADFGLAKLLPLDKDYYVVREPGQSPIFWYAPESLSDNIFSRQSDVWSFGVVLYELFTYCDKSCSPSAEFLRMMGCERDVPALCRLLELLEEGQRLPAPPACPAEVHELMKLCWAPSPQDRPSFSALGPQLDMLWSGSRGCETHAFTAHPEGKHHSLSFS
The experiment is described as follows: In vitro JAK kinase assay (HTRF, phosphorylation of a biotinylated peptide), JAK3. The procedure:
The catalytic activity of JAK1, JAK2 or JAK3 was assayed by measuring the phosphorylation of a biotinylated peptide. The phosphorylated peptide was detected by homogenous time resolved fluorescence (HTRF). […] The ATP concentration in the reactions was 90 μM for JAK1, 30 μM for JAK2 and 3 μM for JAK3. Reactions were carried out at room temperature for 1 hr and then stopped with 20 μL 45 mM EDTA, 300 nM SA-APC, 6 nM Eu-Py20 in assay buffer (Perkin Elmer, Boston, Mass.). Binding to the Europium labeled antibody took place for 40 minutes and HTRF signal was measured on a Fusion plate reader (Perkin Elmer, Boston, Mass.).
The catalytic activity of JAK1, JAK2 or JAK3 was assayed by measuring the phosphorylation of a biotinylated peptide. The phosphorylated peptide was detected by homogenous time resolved fluorescence (HTRF). […] Reactions were carried out at room temperature for 1 hr and then stopped with 20 μL 45 mM EDTA, 300 nM SA-APC, 6 nM Eu-Py20 in assay buffer (Perkin Elmer, Boston, Mass.). Binding to the Europium labeled antibody took place for 40 minutes and HTRF signal was measured on a Fusion plate reader (Perkin Elmer, Boston, Mass.).

Chain of TYK2 (P29597 whole entry): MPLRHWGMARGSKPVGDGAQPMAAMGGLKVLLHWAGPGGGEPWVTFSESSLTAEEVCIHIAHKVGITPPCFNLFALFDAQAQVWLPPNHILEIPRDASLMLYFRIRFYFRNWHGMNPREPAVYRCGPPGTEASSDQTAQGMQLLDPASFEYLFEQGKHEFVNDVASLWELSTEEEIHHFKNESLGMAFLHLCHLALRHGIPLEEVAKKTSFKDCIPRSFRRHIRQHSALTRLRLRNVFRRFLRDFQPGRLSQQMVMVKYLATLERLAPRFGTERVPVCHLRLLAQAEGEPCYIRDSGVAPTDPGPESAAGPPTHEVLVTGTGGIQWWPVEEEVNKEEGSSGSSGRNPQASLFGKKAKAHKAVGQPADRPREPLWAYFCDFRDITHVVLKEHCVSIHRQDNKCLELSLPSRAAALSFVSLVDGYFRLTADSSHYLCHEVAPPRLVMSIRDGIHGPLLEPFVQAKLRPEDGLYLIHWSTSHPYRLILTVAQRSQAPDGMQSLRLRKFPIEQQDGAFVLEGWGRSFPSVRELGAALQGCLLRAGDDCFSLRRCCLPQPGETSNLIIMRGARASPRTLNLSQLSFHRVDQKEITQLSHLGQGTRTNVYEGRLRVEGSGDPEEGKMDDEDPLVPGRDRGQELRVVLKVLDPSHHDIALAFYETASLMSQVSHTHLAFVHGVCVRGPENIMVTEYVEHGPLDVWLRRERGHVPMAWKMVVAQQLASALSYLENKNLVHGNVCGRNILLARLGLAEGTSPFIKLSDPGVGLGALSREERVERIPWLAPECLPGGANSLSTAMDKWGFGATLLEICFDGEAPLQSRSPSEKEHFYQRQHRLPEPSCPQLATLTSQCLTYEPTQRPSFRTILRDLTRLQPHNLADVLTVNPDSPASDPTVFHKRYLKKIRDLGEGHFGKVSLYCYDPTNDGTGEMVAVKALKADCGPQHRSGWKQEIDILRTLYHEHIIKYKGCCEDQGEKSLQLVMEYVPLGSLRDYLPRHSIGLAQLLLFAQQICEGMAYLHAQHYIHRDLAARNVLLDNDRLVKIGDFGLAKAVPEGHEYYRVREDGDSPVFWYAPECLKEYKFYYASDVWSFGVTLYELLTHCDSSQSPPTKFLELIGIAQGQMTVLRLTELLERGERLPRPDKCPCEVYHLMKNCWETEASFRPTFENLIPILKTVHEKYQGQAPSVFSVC
T1 sequence (P23458 849-1154): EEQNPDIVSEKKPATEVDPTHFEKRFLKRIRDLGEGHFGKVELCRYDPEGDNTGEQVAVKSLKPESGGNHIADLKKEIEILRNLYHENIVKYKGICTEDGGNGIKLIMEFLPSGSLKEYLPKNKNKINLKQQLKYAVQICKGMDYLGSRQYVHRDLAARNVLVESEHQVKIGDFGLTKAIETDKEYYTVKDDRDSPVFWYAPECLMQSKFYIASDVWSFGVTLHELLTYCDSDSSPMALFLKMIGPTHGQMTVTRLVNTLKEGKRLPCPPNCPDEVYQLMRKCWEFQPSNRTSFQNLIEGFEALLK

Take `Cc1cc(C(=O)N2CCN(C(=O)COc3ccc4cc3CCc3cncc(c3)Nc3ncc(Cl)c(n3)N4)CC2)no1` [Example D251, 6-Chloro-12-(2-{4-[(5-methylisoxazol-3-yl)carbonyl]piperazin-1-yl}-2-oxoethoxy)-2,4,8,18,22-pentaazatetracyclo[14.3.1.1(3,7).1(9,13)]docosa-1(20),3(22),4,6,9(21),10,12,16,18-nonaene bis(trifluoroacetate)]: the pIC50 against TYK2 (Table D1) was less than 6.40; in experiment [1] (Table D1), 7.74; in experiment [2] (Table D1), 7.77; in experiment [3] (Table D1), less than 6.40.
With `Cc1nc(C)c(CC(=O)Nc2ccc3cc2CCc2cccc(c2)Nc2ncc(Cl)c(n2)N3)s1` [Example C43, N-[6-Chloro-2,4,8,22-tetraazatetracyclo[14.3.1.1(3,7).1(9,13)]docosa-1(20),3(22),4,6,9(21),10,12,16,18-nonaen-12-yl]-2-(2,4-dimethyl-1,3-thiazol-5-yl)acetamide trifluoroacetate], the pIC50 on TYK2 is 7.06; in experiment [1], 7.66; in experiment [2], 7.51; in experiment [3], 5.94.
In the case of `CC(C)(C)NC(=O)N1CCN(c2ccc3cc2CCc2cccc(c2)Nc2ncc(Cl)c(n2)N3)CC1` [Example D84, N-(tert-Butyl)-4-[6-chloro-2,4,8,22-tetraazatetracyclo[14.3.1.1(3,7).1(9,13)]docosa-1(20),3(22),4,6,9(21),10,12,16,18-nonaen-12-yl]piperazine-1-carboxamide bis(trifluoroacetate)], the pIC50 at TYK2 (Table D1) is 7.35; in experiment [1] (Table D1), 7.68; in experiment [2] (Table D1) it was 8.14; in experiment [3] (Table D1), 7.43.
As to `CN1CCN(Cc2cc3cc(c2)Nc2ncc(Cl)c(n2)Nc2cccc(c2)OCC3)CC1` [Example D190, 6-Chloro-19-[(4-methylpiperazin-1-yl)methyl]-14-oxa-2,4,8,23-tetraazatetracyclo[15.3.1.1(3,7).1(9,13)]tricosa-1(21),3(23),4,6,9(22),10,12,17,19-nonaene tris(trifluoroacetate)], the pIC50 was 8.46 at TYK2 (Table D1), 7.62 in experiment [1] (Table D1), 9.05 in experiment [2] (Table D1) and 8.52 in experiment [3] (Table D1).
As to `O=C(COc1ccc2cc1CCc1cncc(c1)Nc1ncc(Cl)c(n1)N2)N1CCN(Cc2ccncc2)CC1` [Example D256, 6-Chloro-12-{2-oxo-2-[4-(pyridin-4-ylmethyl)piperazin-1-yl]ethoxy}-2,4,8,18,22-pentaazatetracyclo[14.3.1.1(3,7).1(9,13)]docosa-1(20),3(22),4,6,9(21),10,12,16,18-nonaene tris(trifluoroacetate)], the pIC50 against TYK2 (Table D1) is less than 6.40; in experiment [1] (Table D1), 6.82; in experiment [2] (Table D1) it was 6.66; in experiment [3] (Table D1) it was less than 6.40.
Consider `O=C(Cc1ccsc1)Nc1ccc2cc1CCc1cccc(c1)Nc1ncc(Cl)c(n1)N2` [Example C32, N-[6-Chloro-2,4,8,22-tetraazatetracyclo[14.3.1.1(3,7).1(9,13)]docosa-1(20),3(22),4,6,9(21),10,12,16,18-nonaen-12-yl]-2-(3-thienyl)acetamide trifluoroacetate], for which the pIC50 against TYK2 was 7.36; in experiment [1], 7.47; in experiment [2], 7.70; in experiment [3], 6.18.
As for `Clc1cnc2nc1Nc1cccc(c1)OCCc1cc(CN3CCNCC3)cc(c1)N2` [Example D191, 6-Chloro-19-(piperazin-1-ylmethyl)-14-oxa-2,4,8,23-tetraazatetracyclo[15.3.1.1(3,7).1(9,13)]tricosa-1(21),3(23),4,6,9(22),10,12,17,19-nonaene tris(trifluoroacetate)], the negative logarithm of the IC50 (pIC50) at TYK2 (Table D1) is 8.05; in experiment [1] (Table D1), 7.47; in experiment [2] (Table D1), 8.85; in experiment [3] (Table D1), 8.24.
`O=C(Cc1c[nH]c2ccccc12)Nc1ccc2cc1CCc1cccc(c1)Nc1ncc(Cl)c(n1)N2` [Example C29, N-[6-Chloro-2,4,8,22-tetraazatetracyclo[14.3.1.1(3,7).1(9,13)]docosa-1(20),3(22),4,6,9(21),10,12,16,18-nonaen-12-yl]-2-(1H-indol-3-yl)acetamide bis(trifluoroacetate)]: the pIC50 against TYK2 is 6.64; in experiment [1] it was 7.37; in experiment [2], 7.17; in experiment [3], 5.99.
On to `O=C(C[C@@H]1CCN(c2nc3ccccc3s2)C1)Nc1ccc2cc1CCc1cncc(c1)Nc1ncc(Cl)c(n1)N2` [Example D137, 2-[(3S)-1-(1,3-Benzothiazol-2-yl)pyrrolidin-3-yl]-N-[6-chloro-2,4,8,18,22-pentaazatetracyclo[14.3.1.1(3,7).1(9,13)]docosa-1(20),3(22),4,6,9(21),10,12,16,18-nonaen-12-yl]acetamide tris(trifluoroacetate)], for which the pIC50 is 7.18 on TYK2 (Table D1), 8.80 in experiment [1] (Table D1), 7.82 in experiment [2] (Table D1) and less than 6.00 in experiment [3] (Table D1).
In the case of `Cc1cc(C(=O)N2CCC(CC(=O)Nc3ccc4cc3CCc3cncc(c3)Nc3ncc(F)c(n3)N4)CC2)no1` [Example C49, N-[6-Fluoro-2,4,8,18,22-pentaazatetracyclo[14.3.1.1(3,7).1(9,13)]docosa-1(20),3(22),4,6,9(21),10,12,16,18-nonaen-12-yl]-2-{1-[(5-methylisoxazol-3-yl)carbonyl]piperidin-4-yl}acetamide trifluoroacetate], the pIC50 was 6.49 on TYK2, 7.30 in experiment [1], less than 6.40 in experiment [2] and less than 6.40 in experiment [3].
With `COCC(=O)N1CCN(C(=O)COc2ccc3cc2CCc2cncc(c2)Nc2ncc(Cl)c(n2)N3)CC1` [Example D262, 6-Chloro-12-{2-[4-(methoxyacetyl)piperazin-1-yl]-2-oxoethoxy}-2,4,8,18,22-pentaazatetracyclo[14.3.1.1(3,7).1(9,13)]docosa-1(20),3(22),4,6,9(21),10,12,16,18-nonaene bis(trifluoroacetate)], the pIC50 is less than 6.40 at TYK2 (Table D1), 6.82 in experiment [1] (Table D1), less than 6.40 in experiment [2] (Table D1) and less than 6.40 in experiment [3] (Table D1).
For the molecule `O=C(CC1CCN(c2ccccn2)C1)Nc1ccc2cc1CCc1cncc(c1)Nc1ncc(Cl)c(n1)N2` (stereo not shown) [Example D156, N-[6-Chloro-2,4,8,18,22-pentaazatetracyclo[14.3.1.1(3,7).1(9,13)]docosa-1(20),3(22),4,6,9(21),10,12,16,18-nonaen-12-yl]-2-(1-pyridin-2-ylpyrrolidin-3-yl)acetamide tris(trifluoroacetate)], the pIC50 on TYK2 (Table D1) is 6.66; in experiment [1] (Table D1) it was 7.62; in experiment [2] (Table D1) it was 7.54; in experiment [3] (Table D1), less than 6.40.
The like results for `N#Cc1ccc(NC(=O)N2CCN(c3ccc4cc3CCc3cccc(c3)Nc3ncc(Cl)c(n3)N4)CC2)cc1` [Example D93, 4-[6-Chloro-2,4,8,22-tetraazatetracyclo[14.3.1.1(3,7).1(9,13)]docosa-1(20),3(22),4,6,9(21),10,12,16,18-nonaen-12-yl]-N-(4-cyanophenyl)piperazine-1-carboxamide bis(trifluoroacetate)] were, in that order, 7.15, 7.34, 7.85 and 7.16.
